From paper PMC5893540, “Mechanistic insights into allosteric regulation of the A2A adenosine G protein-coupled receptor by physiological cations” (Nature Communications, 2018)
Values joined by “and” are separate entries in the source; they are usually repeats but may differ in a detail not shown here. Identical values can stand only once. “Also recorded” adds a separate entry of the source. Like-named read-outs stand apart in the source and are kept apart here.

What was measured:
[1] = molecular target: T1, A2AR + Gs (Homo sapiens, UniProt P29274, V229C); experiment: [3H]NECA binding in A2AR/Gs-infected Sf9 membranes; conditions: for effect of cation on specific [3H]NECA binding / EC50: 10 nM [3H]NECA; for effect of cation on specific [3H]NECA binding: increasing cation concentration; for effect on [3H]NECA high affinity saturation: 2.5 mM cation; for EC50: read-out: half-maximal cation concentration for enhancement of [3H]NECA binding, 100 mM NaCl
T1 construct: Flag (N); TEV site (N); His10 (H10) (C); expressed in transfected cells; host or cells: Sf9 insect cells, baculovirus co-infection (A2AR, Gαs, Gβγ); membranes
Text: The above ^19F NMR observations are further recapitulated in radioligand binding assays in Sf9 cell membranes in which the identical A2AR construct was co-expressed with the heterotrimeric stimulatory G protein, Gαsβγ.
Error bars for radioligand binding assays are defined based on three replicates

[2] = molecular target: T2, BTFMA-labeled A2AR-V229C (Homo sapiens, UniProt P29274, V229C); experiment: 19F NMR of functional state populations (S1-2, S3, S3'); conditions: for effect on active state population: 20 mM cation, saturating NECA and Gαs peptide, 100 mM NaCl; for effect on populations of functional states: apo A2AR in MNG-3 micelles, divalent cations 100–500 mM, KCl with 10 or 100 mM NaCl
T2 construct: alpha-factor secretion leader (Fα-Factor) (N); Flag (N); TEV site (N); His10 (H10) (C); made in house; host or cells: Pichia pastoris SMD 1163
Procedure: Here, spectra are deconvolved into three resonances, referred to as S1−2, S3, and S3′, in keeping with previously published work[1].
NMR samples typically consisted of 250 μL volumes of 25–200 μM A2AR-V229C in 50 mM HEPES buffer (pH 7.4) and 100 mM NaCl, doped with 10% D2O. The receptor was stabilized in 0.1% MNG-3 and 0.02% CHS. All ^19F NMR experiments were performed on a 600 MHz Varian Inova spectrometer using a cryogenic triple resonance probe, with the high frequency channel tunable to either ^1H or ^19F. […] Most spectra were acquired with 10,000–50,000 scans depending on sample concentration. Processing typically involved zero filling, and exponential apodization equivalent to 20 Hz line broadening.

[3] = molecular target: T3, apo A2AR-V229C (Homo sapiens, UniProt P29274, V229C); experiment: 25Mg NMR line width binding isotherm and Ca2+ competition; set-up: alpha-factor secretion leader (Fα-Factor) (N); Flag (N); TEV site (N); His10 (H10) (C); made in house; host or cells: Pichia pastoris SMD 1163
Procedure: The experiment was performed on an Agilent DD2-600 NMR, equipped with a 10 mm low gamma direct detect probe and low frequency pre-amp. The experimental parameters used were as follows: 20 °C, a Larmor frequency of 36.72 MHz, a spectral width of 2.5 kHz, 1.1 s acquisition time, 0.5 s relaxation time, a 30 µs 90° excitation pulse, and between 128 and 2048 scans depending on the signal-to-noise ratio. For the Kd determination of Mg^2+ the following protocol was used: A 1 M MgCl2 solution with 10 mM DyCl3 in D2O was used as a reference and was placed in a 5-mm OD tube. A sample of 1.5 mL of the protein solution was placed in a 10-mm OD NMR tube. The reference tube was thoroughly cleaned and inserted into the 10-mm tube and centered with a plastic cap. Titration volumes of 3–37 µL of 4.64 M MgCl2 were added directly to the 10-mm tube which was then gently mixed using a vortex shaker. The sample was allowed to equilibrate in the magnet for 10 min at the set temperature and the sample was then locked, tuned, gradient shimmed and acquired. […] The sample was allowed to equilibrate at the set temperature in the magnet for 10 min and then locked, tuned, gradient shimmed and acquired. The Kd and Ki values were determined, using GraphPad Prism 6 software, by fitting the data to the formula, y = A × x/(Kd + x), where x represents the cation concentration.

[4] = molecular target: T3, apo A2AR-V229C; experiment: 23Na NMR binding isotherm (line width / chemical shift)
Procedure: Relaxation dispersions associated with ^23Na CPMG experiments, shown in Fig. 2e, provide an additional measure of cation binding and exchange dynamics.
The experiments were performed on a 600 MHz Varian VNMRS spectrometer using a room temperature XH broadband probe (X-nucleus on the inner coil). […] An external ^23Na reference was prepared by mixing 50 mM NaCl and 50 mM TmCl3 in equal volumes prior to loading into the coaxial insert. […] Information regarding binding can be reliably obtained by observing the shift of the free peak and line broadening associated with fast exchange between “free” and “bound” states.

T3 sequence (P29274 1-316 V229C limits assumed): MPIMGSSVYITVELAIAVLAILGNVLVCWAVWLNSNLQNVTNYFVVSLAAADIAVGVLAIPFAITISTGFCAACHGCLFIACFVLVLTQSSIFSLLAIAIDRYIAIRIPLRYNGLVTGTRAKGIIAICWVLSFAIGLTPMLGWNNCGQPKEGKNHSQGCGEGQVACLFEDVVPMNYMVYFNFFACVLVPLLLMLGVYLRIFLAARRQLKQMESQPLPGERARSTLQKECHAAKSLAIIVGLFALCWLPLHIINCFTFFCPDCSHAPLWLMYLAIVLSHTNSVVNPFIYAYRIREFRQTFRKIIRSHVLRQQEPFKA
T2 sequence (P29274 1-316 V229C limits assumed): as above
T1 sequence (P29274 1-316 V229C limits assumed): as above
T1 sequence (P63092 whole entry partner): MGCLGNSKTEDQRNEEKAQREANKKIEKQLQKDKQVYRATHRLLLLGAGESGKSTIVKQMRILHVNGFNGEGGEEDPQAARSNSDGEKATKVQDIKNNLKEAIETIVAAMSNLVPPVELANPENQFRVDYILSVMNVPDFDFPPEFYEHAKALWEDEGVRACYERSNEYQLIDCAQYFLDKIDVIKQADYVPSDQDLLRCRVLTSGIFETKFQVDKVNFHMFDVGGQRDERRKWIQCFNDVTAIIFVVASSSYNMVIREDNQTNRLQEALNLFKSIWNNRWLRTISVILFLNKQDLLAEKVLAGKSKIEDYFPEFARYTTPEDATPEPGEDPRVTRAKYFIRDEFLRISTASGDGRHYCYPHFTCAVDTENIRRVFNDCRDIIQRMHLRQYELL
T1 sequence (P62873 whole entry partner): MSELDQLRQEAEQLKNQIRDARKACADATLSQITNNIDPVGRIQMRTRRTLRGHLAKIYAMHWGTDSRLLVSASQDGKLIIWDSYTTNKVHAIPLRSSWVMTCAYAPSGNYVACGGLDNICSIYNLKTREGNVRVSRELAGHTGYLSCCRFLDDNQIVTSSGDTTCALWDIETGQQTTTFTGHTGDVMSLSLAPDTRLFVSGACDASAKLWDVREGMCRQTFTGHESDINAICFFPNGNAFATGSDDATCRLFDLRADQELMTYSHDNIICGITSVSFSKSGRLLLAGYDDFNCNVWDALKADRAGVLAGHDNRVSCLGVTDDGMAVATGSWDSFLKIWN
T1 sequence (P59768 2-68 partner limits assumed): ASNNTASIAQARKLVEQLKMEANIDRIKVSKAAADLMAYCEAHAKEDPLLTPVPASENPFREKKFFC

Structure (SMILES) | effect of cation on specific [3H]NECA binding [1] | effect on active state population [2] | effect on populations of functional states [2] | further results
[Ca+2].[Cl-].[Cl-] [Ca^2+, CaCl2] | significantly enhance | detectable increase in the proportion of active states | shift the equilibrium of apo A2AR toward the active states | effect on [3H]NECA high affinity saturation [1]: enhance maximal specific [^3H]NECA binding and affinity (Kd); EC50 [1]: 0.35 to 0.4 mM; EC50 ([1]; listed as Ca2+): 0.35 mM; Ki ([3]; 50 mM 25Mg2+, increasing CaCl2, 50 µM apo-A2AR-V229C, read-out: Ki of Ca2+ displacement of Mg2+): 98 ± 41 mM
[Fe+2] [Fe^2+] | no positive allosteric effects | did not |  | 
NC(N)=NC(=O)c1nc(Cl)c(N2CCCCCC2)nc1N [HMA, 5-(N,N-hexamethylene)amiloride, reference compound] |  |  |  | competition with sodium in 23Na NMR binding isotherm ([4]; 100 mM NaCl, stoichiometric equivalents of HMA): compete with sodium
[Cl-].[K+] [KCl] |  |  | no significant change | 
[Cl-].[Cl-].[Mg+2] [Mg^2+, MgCl2] | significantly enhance | detectable increase in the proportion of active states; also recorded: obvious increase in the active S3′ state population | shift the equilibrium of apo A2AR toward the active states | effect on [3H]NECA high affinity saturation [1]: enhance maximal specific [^3H]NECA binding and affinity (Kd); EC50 [1]: 0.35 to 0.4 mM; EC50 ([1]; listed as Mg2+): 0.35 mM; Kd ([3]; 50 µM apo-A2AR-V229C, 100 mM Na+, N=1, fitting error, read-out: dissociation constant Kd of MgCl2): 60 ± 15 mM
[Cl-].[Cl-].[Zn+2] [Zn^2+, ZnCl2] | reduce high affinity binding; also recorded: reduced binding; also recorded: no positive allosteric effects |  |  | 
[Cl-].[Na+] [sodium, NaCl] |  |  | shifts the equilibrium toward the inactive ensemble | Kd ([4]; read-out: dissociation constant Kd of sodium, apo A2AR-V229C 50 μM, line width-based isotherm, 10–1000 mM NaCl): 60 mM and ~60 mM
